Assay results from patent US20240408081A1, “NOVEL SYNERGISTIC COMBINATIONS AND METHODS OF USE THEREOF FOR TREATING CANCERS” (UNIVERSITE DE BORDEAUX, priority 2021, published 2024).
pIC50: −log10 of the molar value. Where two headings read alike, the source gives them in different places.

Assays:
[1] = system: NEM157i, SU-DIPG-IVi and NEM163i DMG cells; assay: Proliferation / cell viability assay (Sulforhodamine B) in DMG cell lines; assay type: cell-based, human
Experimental: (§1) Cell growth was measured with the In vitro Toxicology Assay kit (Sulforhodamine B, Sigma Aldrich, Saint Quentin Fallavier, France) according to manufacturer's instructions. Cells were plated at a density of 2000 cells per well in 96-well plates in triplicates. Absorbance was measured at 565 nm using the CLARIOstar multiplate reader (BMG Labtech, Champigny-sur-Marne, France) at indicated time points.

BXdmg1 primary cells = assay: Proliferation assay in primary DMG cells BXdmg1; assay type: cell-based, human
Experimental: as §1
A DMG biopsy was received in the laboratory and dissociated using GentleMACs cell separator (Miltenyi Biotech, Paris, France) within 24h using MACSBrain Tumor Dissociation Kit (Miltenyi Biotech, Paris, France) and the standard GentleMACs brain tissue separation program. Cells yielded were cultivated in Amniomax C100SUP plus Amniomax C100 basal medium (Gibco, ThermoFisher, Illkirch Cedex, France). Molecular and cellular analysis of the biopsy were detailed in FIG. 7 (see Rahal, F., C. Capdevielle, B. Rousseau, J. Izotte, J. W. Dupuy, D. Cappellen, G. Chotard, M. Menard, J. Charpentier, V. Jecko, C. Caumont, E. Gimbert, C. F. Grosset and M. Hagedorn (2022). “An EZH2 blocker sensitizes histone mutated diffuse midline glioma to cholesterol metabolism inhibitors through an off-target effect.” Neurooncol Adv 4 (1): vdac018).

[2] = system: HMGCS, HMGCR, LDLR, NPC1 and SQLE; assay: RT-qPCR and Western blot of lipid and cholesterol synthesis genes in DIPG cells; assay type: cell-based, human; settings: GSK-126 at IC50 of each cell line
Experimental: Cell lysates were prepared by scraping cells using RIPA buffer (Sigma Aldrich) plus proteinase inhibitors (Sigma Aldrich) and centrifuged at 13000 g for 15 min at 4° C. Protein concentrations were measured using Pierce™ BCATM Protein Assays (ThermoFisher) and equal amounts of cell extracts were loaded for western blot analysis in 4-15% precasted polyacrylamide gel (Bio-Rad). Proteins were blotted on a nitrocellulose membrane (Transblot® Turbo midi-size, Bio Rad), blocked with the Odyssey blocking buffer (LI-COR Biosciences, ScienceTec, Les Ulis, France) or with BSA diluted in Tris-buffered saline with 0.1% Tween 20 (TBST) and probed with primary antibodies overnight at 4° C. […] Quantification was performed using ImageJ (National Institutes of Health, Bethesda, Maryland, USA).
Total RNA was isolated from cell lines with the TRI Reagent (Sigma) following manufacturer's instructions. For quantification of messenger RNA (mRNA) expression, total RNA was retrotranscribed using the Maxima Reverse Transcriptase (Thermo Scientific). […]

Huh6 cells [3] = assay: Cell viability assay (CellTiter 96 AQueous One / MTS) in Huh6; assay type: cell-based, human
Experimental: For 2D culture, a total of 2,000 cells/well for Huh6 and 3,000 cells/well for HepG2 were seeded in 96-well microtiter plates. Cell growth was measured at 24 h, 48h, 72h or 96h after genetic manipulation and at 48h or 72h after drug treatment using the in vitro MTS assay Kit or Sulforhodamine B (SRB, Absorbance at 565 nm) assay (Sigma) following manufacturer's instructions. For 3D culture, spheroids were formed as described above and microplates were incubated in an IncuCyte® S3 live cell analysis system and scanned every 8 hours. For genetic manipulation, the lentiviral transductions or the gene depletions were done before the plating. For drug treatments, depending on the experiment and the drug, spheroids were treated at day 4 or 5 for 48h or 72h. Cell viability assay in spheroids was done using 1 μM calcein AM (BioLegend) and 2 μM ethidium homodimer 1 (Sigma) for 30 minutes at 37° C. Spheroids were imaged using an IncuCyte® S3 live cell analysis system. For all cell viability assays, drugs were used at half maximal inhibitory concentration (IC50).

Huh6 and HepG2 cells = assay: Clonogenicity assay; assay type: cell-based, human; settings: GSK-126 3 and 4 μM for Huh6 and HepG2; ATR 8 μM; SIM 4 μM; 10 days
Experimental: Huh6 and HepG2 cells were seeded at 500 and 1000 cells/well respectively in 12-well plates. After attachment, cells were treated with drugs.
Following incubation at 37° C. for 10 days, the cells were fixed with 4% PFA and stained with 0.05% crystal violet. Reading under the Fusion FX (Vilber Lourmat).

Huh6 cells [4] = assay: Huh6 tumor xenografts in NSG mice; assay type: in vivo, NOD/LtSz-scid IL2R gamma null (NSG) mice; settings: intraperitoneal; GSK-126 50 mg/kg, ATR 20 mg/kg 3-times a week; cisplatin 1 mg/kg twice a week
Experimental: NOD/LtSz-scid IL2R gamma null (NSG) mice were bred in standard conditions compliant with regulatory bodies (French government). Sterilized food and water were accessible ad libitum. One million of Huh6 cells in 50% of Matrigel were subcutaneously injected in a total volume of 100 μl in the right flank of 8- to 9-week-old female mice (26-32 g; APAFIS #32917-2021121316283534 v2, Agreement #B33063916, Ministère de l'Enseignement Supérieur, de la Recherche et de l'Innovation).
Tumor growth was monitored by caliper measurement until tumors reached an average volume of 250 mm3 (at day 12, see arrow). […] The vehicle (PBS with 5% DMSO) was injected 3-times a week. Tumor growth was monitored during 16 additional days until tumors control reached a size of 2000 mm3. Thus, all mice were euthanized. Blood was collected from all euthanatized mice and circulating ASAT, ALAT, creatinine, and urea were measured to evaluate the toxicity of the different treatments on the liver and kidneys.

CC[C@H](C)n1cc(C)c2c(C(=O)NCc3c(C)cc(C)[nH]c3=O)cc(-c3ccc(N4CCNCC4)nc3)cc21 [GSK-126, 1-[(2S)-butan-2-yl]-N-[(4,6-dimethyl-2-oxo-1H-pyridin-3-yl)methyl]-3-methyl-6-[6-(1-piperazinyl)-3-pyridinyl]-4-indolecarboxamide]
effect of low dose on DMG cell growth ([1]; 4 μM): does not affect
pIC50 ([1]; Homo sapiens, three DMG cell lines, 72 h of treatment, read-out: IC50 (half maximal inhibitory concentration)): 4.99 to 5.12
doses with significant growth inhibition ([1]; NEM157i and SU-DIPG-IVi): above 6 μM
doses with total growth inhibition ([1]; NEM157i and SU-DIPG-IVi): above 25 μM
pIC50 (BXdmg1 primary cells): 4.98
pIC50 (BXdmg1 primary cells; Homo sapiens): ~5.00
expression of HMGCS, HMGCR, LDLR, NPC1 and SQLE genes, and HMGCR and SQLE proteins [2]: induced
IC25 dose (Huh6 cells [3]): 3 µM
pIC50 (Huh6 cells [3]; Homo sapiens, HuH-6): 5.22
proliferation and survival of hepatoblastoma cells (clonogenic cell assay) (Huh6 and HepG2 cells): little effect
development of hepatoblastoma in mice (tumor volume) (Huh6 cells [4]): no effect
